These results are taken from ChEMBL document CHEMBL1147060.

In test [1] the test system is Mast cell. Put plainly: Inhibition of antigen-induced IL6 secretion in mouse mast cells at 1 uM after 24 hrs by ELISA. The format is functional, cell-based. Background: ELISA stands for enzyme-linked immunosorbent assay.
Test [2] is filed under the species Homo sapiens. Put plainly: Inhibition of antigen-induced histamine release in human basophils at 1 uM after 30 mins. The format is functional.
The subject of test [3] is BMMC. Briefly: Inhibition of antigen-induced histamine release in Tec-deficient BMMC at 1 uM after 30 mins. The format is functional, cell-based. As to conditions: Mus musculus.
Test [4] relates to U-937. Put plainly: Decrease in LPS-induced TNFalpha release in human U937 cells after 1 hr by ELISA. The format is functional, cell-based.
Test [5] concerns U-937. Put plainly: Decrease in basal TNFalpha release in human U937 cells after 1 hr by ELISA. It counts as functional, cell-based.
Test [6] relates to BMMC. Put plainly: Inhibition of antigen-induced histamine release in wild-type BMMCs at 1 uM after 30 mins. The settings on record: Mus musculus. The format is functional, cell-based.
In test [7] the test system is U-937. Put plainly: Inhibition of basal TNFalpha release in human U937 cells at 2 uM after 1 hr by ELISA. It counts as functional, cell-based.
The subject of test [8] is U-937. Put plainly: Inhibition of LPS-induced TNFalpha release in human U937 cells at 2 uM after 1 hr by ELISA. It counts as functional, cell-based.

Calls of active or inactive are those of the source. No cut-off for these calls is given here.

Regarding `Cc1nc(Nc2ncc(C(=O)Nc3c(C)cccc3Cl)s2)cc(N2CCN(CCO)CC2)n1`, the result in test [1], in test [2], in test [3], in test [4], in test [5] and in test [6] was Active. Also, the outcome in test [7] and in test [8] was inactive.
